Assay results: patent publication US7884136B2, “Modified-release formulations of a bupropion salt” (Biovail Laboratories International S.R.L., priority 2005, dated 2011)

Test: Accelerated stability study of bupropion HBr, closed bottles, 40° C./75% RH, 3 and 6 months, HPLC
Assay type: physicochemical
Details: 40° C./R.H. 75%, 3 month
Method: The samples were prepared in closed bottles and placed in the stability chamber. HPLC analysis was conducted on the samples prior to placing them in the stability chamber (time 0), and after 3 months and 6 months. The amounts of the main degradation products present at time 0 were compared with those amounts present after 3 months and 6 months. […] For each sample tested, at each time period, two different HPLC assays were run. The first assay labelled chromatographic purity A, measured the percentage of three impurities 3′chloropropiophenone, 3′-Chloro-2-bromopropiophenone and 3′-Chlorobenzoic acid. The second assay, labelled chromatographic purity B, measured the percentage of 2-N-(tert-Butyl)-aminopropiophenone, a single unknown impurity and the total unknown impurities.

Structure (SMILES) | Chromatographic purity (HPLC: A + B) Total impurities | Water content (K.F.)
Br.CC(NC(C)(C)C)C(=O)c1cccc(Cl)c1 (stereo not drawn) [Bupropion.HBr D00895] | 0.1% | 0.07%
Br.CC(NC(C)(C)C)C(=O)c1cccc(Cl)c1 (stereo not drawn) [Bupropion.HBr D00896] | 0.1% | 0.11%
Br.CC(NC(C)(C)C)C(=O)c1cccc(Cl)c1 (stereo not drawn) [Bupropion.HBr D00894] | 0.1% | 0.07%

Same assay, conditions: 40° C./R.H. 75%, 3 month; LOQ 0.02%, LOD 0.002%

Structure (SMILES) | Chromatographic purity B) (HPLC): 4) 2-N-(tert-Butyl)-aminopropiophenone | Chromatographic purity B) (HPLC): 5) single unknown impurity (each)
Br.CC(NC(C)(C)C)C(=O)c1cccc(Cl)c1 (stereo not drawn) [Bupropion.HBr D00895] | 4) 0.03% | 5) 0.04%
Br.CC(NC(C)(C)C)C(=O)c1cccc(Cl)c1 (stereo not drawn) [Bupropion.HBr D00896] | 4) 0.03% | 5) 0.04%
Br.CC(NC(C)(C)C)C(=O)c1cccc(Cl)c1 (stereo not drawn) [Bupropion.HBr D00894] | 4)0.03% | 5) 0.04%

Same assay, conditions: 40° C./R.H. 75%, 3 month; LOQ 0.05%, LOD 0.01%

Structure (SMILES) | Chromatographic purity A) (HPLC): 1) 3′-Chloropropiophenone | Chromatographic purity A) (HPLC): 3) 3′-Chlorobenzoic acid
Br.CC(NC(C)(C)C)C(=O)c1cccc(Cl)c1 (stereo not drawn) [Bupropion.HBr D00895] | 1) n.q. | 3) 0.05%
Br.CC(NC(C)(C)C)C(=O)c1cccc(Cl)c1 (stereo not drawn) [Bupropion.HBr D00896] | 1) n.q. | 3) n.q.
Br.CC(NC(C)(C)C)C(=O)c1cccc(Cl)c1 (stereo not drawn) [Bupropion.HBr D00894] | 1) n.q. | 3) n.q.

Same assay, conditions: 40° C./R.H. 75%, 3 month; LOQ 0.05%, LOD 0.04%

Structure (SMILES) | Chromatographic purity A) (HPLC): 2) 3′-Chloro-2-bromopropiophenone
Br.CC(NC(C)(C)C)C(=O)c1cccc(Cl)c1 (stereo not drawn) [Bupropion.HBr D00895] | 2) n.d.
Br.CC(NC(C)(C)C)C(=O)c1cccc(Cl)c1 (stereo not drawn) [Bupropion.HBr D00896] | 2) n.d.
Br.CC(NC(C)(C)C)C(=O)c1cccc(Cl)c1 (stereo not drawn) [Bupropion.HBr D00894] | 2) n.d.

Same assay, conditions: 40° C./R.H. 75%, 3 month; on d.b.

Structure (SMILES) | Assay (HPLC)
Br.CC(NC(C)(C)C)C(=O)c1cccc(Cl)c1 (stereo not drawn) [Bupropion.HBr D00895] | 100.7%
Br.CC(NC(C)(C)C)C(=O)c1cccc(Cl)c1 (stereo not drawn) [Bupropion.HBr D00896] | 100.0%
Br.CC(NC(C)(C)C)C(=O)c1cccc(Cl)c1 (stereo not drawn) [Bupropion.HBr D00894] | 99.6%

Same assay, conditions: 40° C./R.H. 75%, 3 month; specification white or almost white crystalline powder

Structure (SMILES) | Description
Br.CC(NC(C)(C)C)C(=O)c1cccc(Cl)c1 (stereo not drawn) [Bupropion.HBr D00895] | conform
Br.CC(NC(C)(C)C)C(=O)c1cccc(Cl)c1 (stereo not drawn) [Bupropion.HBr D00896] | conform
Br.CC(NC(C)(C)C)C(=O)c1cccc(Cl)c1 (stereo not drawn) [Bupropion.HBr D00894] | conform

Same assay, conditions: 40° C./R.H. 75%, 3 month; sum of all impurity peak areas

Structure (SMILES) | Chromatographic purity B) (HPLC): 6) total unknown impurities
Br.CC(NC(C)(C)C)C(=O)c1cccc(Cl)c1 (stereo not drawn) [Bupropion.HBr D00895] | 6) 0.05%
Br.CC(NC(C)(C)C)C(=O)c1cccc(Cl)c1 (stereo not drawn) [Bupropion.HBr D00894] | 6) 0.06%

Same assay, conditions: 40° C./R.H. 75%, 6 months

Structure (SMILES) | Chromatographic purity (HPLC: A + B) Total impurities | Water content (K.F.)
Br.CC(NC(C)(C)C)C(=O)c1cccc(Cl)c1 (stereo not drawn) [Bupropion.HBr D00895] | 0.1% | 0.07%
Br.CC(NC(C)(C)C)C(=O)c1cccc(Cl)c1 (stereo not drawn) [Bupropion.HBr D00896] | 0.1% | 0.04%
Br.CC(NC(C)(C)C)C(=O)c1cccc(Cl)c1 (stereo not drawn) [Bupropion.HBr D00894] | 0.1% | 0.08%

Same assay, conditions: 40° C./R.H. 75%, 6 months; LOQ 0.02%, LOD 0.002%

Structure (SMILES) | Chromatographic purity B) (HPLC): 4) 2-N-(tert-Butyl)-aminopropiophenone | Chromatographic purity B) (HPLC): 5) single unknown impurity (each)
Br.CC(NC(C)(C)C)C(=O)c1cccc(Cl)c1 (stereo not drawn) [Bupropion.HBr D00895] | 4) 0.04% | 5) n.q.
Br.CC(NC(C)(C)C)C(=O)c1cccc(Cl)c1 (stereo not drawn) [Bupropion.HBr D00896] | 4) 0.04% | 5) n.q.
Br.CC(NC(C)(C)C)C(=O)c1cccc(Cl)c1 (stereo not drawn) [Bupropion.HBr D00894] | 4) 0.04% | 5) n.q.

Same assay, conditions: 40° C./R.H. 75%, 6 months; LOQ 0.05%, LOD 0.01%

Structure (SMILES) | Chromatographic purity A) (HPLC): 1) 3′-Chloropropiophenone | Chromatographic purity A) (HPLC): 3) 3′-Chlorobenzoic acid
Br.CC(NC(C)(C)C)C(=O)c1cccc(Cl)c1 (stereo not drawn) [Bupropion.HBr D00895] | 1) 0.05% | 3) n.q.
Br.CC(NC(C)(C)C)C(=O)c1cccc(Cl)c1 (stereo not drawn) [Bupropion.HBr D00896] | 1) 0.05% | 3) n.q.
Br.CC(NC(C)(C)C)C(=O)c1cccc(Cl)c1 (stereo not drawn) [Bupropion.HBr D00894] | 1) 0.05% | 3) n.q.

Same assay, conditions: 40° C./R.H. 75%, 6 months; LOQ 0.05%, LOD 0.04%

Structure (SMILES) | Chromatographic purity A) (HPLC): 2) 3′-Chloro-2-bromopropiophenone
Br.CC(NC(C)(C)C)C(=O)c1cccc(Cl)c1 (stereo not drawn) [Bupropion.HBr D00895] | 2) n.d.
Br.CC(NC(C)(C)C)C(=O)c1cccc(Cl)c1 (stereo not drawn) [Bupropion.HBr D00896] | 2) n.d.
Br.CC(NC(C)(C)C)C(=O)c1cccc(Cl)c1 (stereo not drawn) [Bupropion.HBr D00894] | 2) n.d.

Same assay, conditions: 40° C./R.H. 75%, 6 months; on d.b.

Structure (SMILES) | Assay (HPLC)
Br.CC(NC(C)(C)C)C(=O)c1cccc(Cl)c1 (stereo not drawn) [Bupropion.HBr D00895] | 99.7%
Br.CC(NC(C)(C)C)C(=O)c1cccc(Cl)c1 (stereo not drawn) [Bupropion.HBr D00896] | 100.4%

Same assay, conditions: 40° C./R.H. 75%, 6 months; specification white or almost white crystalline powder

Structure (SMILES) | Description
Br.CC(NC(C)(C)C)C(=O)c1cccc(Cl)c1 (stereo not drawn) [Bupropion.HBr D00895] | conform
Br.CC(NC(C)(C)C)C(=O)c1cccc(Cl)c1 (stereo not drawn) [Bupropion.HBr D00896] | conform
Br.CC(NC(C)(C)C)C(=O)c1cccc(Cl)c1 (stereo not drawn) [Bupropion.HBr D00894] | conform

Same assay, conditions: 40° C./R.H. 75%, 6 months; sum of all impurity peak areas

Structure (SMILES) | Chromatographic purity B) (HPLC): 6) total unknown impurities
Br.CC(NC(C)(C)C)C(=O)c1cccc(Cl)c1 (stereo not drawn) [Bupropion.HBr D00895] | 6) 0.02%
Br.CC(NC(C)(C)C)C(=O)c1cccc(Cl)c1 (stereo not drawn) [Bupropion.HBr D00896] | 6) n.q.

Same assay, conditions: 40° C./R.H. 75%, time 0

Structure (SMILES) | Chromatographic purity (HPLC: A + B) Total impurities | Water content (K.F.)
Br.CC(NC(C)(C)C)C(=O)c1cccc(Cl)c1 (stereo not drawn) [Bupropion.HBr D00895] | 0.1% | 0.04%
Br.CC(NC(C)(C)C)C(=O)c1cccc(Cl)c1 (stereo not drawn) [Bupropion.HBr D00896] | 0.1% | 0.06%
Br.CC(NC(C)(C)C)C(=O)c1cccc(Cl)c1 (stereo not drawn) [Bupropion.HBr D00894] | 0.1% | 0.05%

Same assay, conditions: 40° C./R.H. 75%, time 0; LOQ 0.02%, LOD 0.002%

Structure (SMILES) | Chromatographic purity B) (HPLC): 4) 2-N-(tert-Butyl)-aminopropiophenone | Chromatographic purity B) (HPLC): 5) single unknown impurity (each)
Br.CC(NC(C)(C)C)C(=O)c1cccc(Cl)c1 (stereo not drawn) [Bupropion.HBr D00895] | 4) 0.04% | 5) 0.04%
Br.CC(NC(C)(C)C)C(=O)c1cccc(Cl)c1 (stereo not drawn) [Bupropion.HBr D00896] | 4) 0.04% | 5) 0.05%
Br.CC(NC(C)(C)C)C(=O)c1cccc(Cl)c1 (stereo not drawn) [Bupropion.HBr D00894] | 4) 0.04% | 5) 0.04%

Same assay, conditions: 40° C./R.H. 75%, time 0; LOQ 0.05%, LOD 0.01%

Structure (SMILES) | Chromatographic purity A) (HPLC): 1) 3′-Chloropropiophenone | Chromatographic purity A) (HPLC): 3) 3′-Chlorobenzoic acid
Br.CC(NC(C)(C)C)C(=O)c1cccc(Cl)c1 (stereo not drawn) [Bupropion.HBr D00895] | 1) n.d. | 3) n.q.
Br.CC(NC(C)(C)C)C(=O)c1cccc(Cl)c1 (stereo not drawn) [Bupropion.HBr D00896] | 1) n.d. | 3) n.q.
Br.CC(NC(C)(C)C)C(=O)c1cccc(Cl)c1 (stereo not drawn) [Bupropion.HBr D00894] | 1) n.d. | 3) n.q.

Same assay, conditions: 40° C./R.H. 75%, time 0; LOQ 0.05%, LOD 0.04%

Structure (SMILES) | Chromatographic purity A) (HPLC): 2) 3′-Chloro-2-bromopropiophenone
Br.CC(NC(C)(C)C)C(=O)c1cccc(Cl)c1 (stereo not drawn) [Bupropion.HBr D00895] | 2) n.d.
Br.CC(NC(C)(C)C)C(=O)c1cccc(Cl)c1 (stereo not drawn) [Bupropion.HBr D00896] | 2) n.d.
Br.CC(NC(C)(C)C)C(=O)c1cccc(Cl)c1 (stereo not drawn) [Bupropion.HBr D00894] | 2) n.d.

Same assay, conditions: 40° C./R.H. 75%, time 0; on d.b.

Structure (SMILES) | Assay (HPLC)
Br.CC(NC(C)(C)C)C(=O)c1cccc(Cl)c1 (stereo not drawn) [Bupropion.HBr D00895] | 99.2%
Br.CC(NC(C)(C)C)C(=O)c1cccc(Cl)c1 (stereo not drawn) [Bupropion.HBr D00896] | 99.3%
Br.CC(NC(C)(C)C)C(=O)c1cccc(Cl)c1 (stereo not drawn) [Bupropion.HBr D00894] | 99.6%

Same assay, conditions: 40° C./R.H. 75%, time 0; specification white or almost white crystalline powder

Structure (SMILES) | Description
Br.CC(NC(C)(C)C)C(=O)c1cccc(Cl)c1 (stereo not drawn) [Bupropion.HBr D00895] | conform
Br.CC(NC(C)(C)C)C(=O)c1cccc(Cl)c1 (stereo not drawn) [Bupropion.HBr D00896] | conform
Br.CC(NC(C)(C)C)C(=O)c1cccc(Cl)c1 (stereo not drawn) [Bupropion.HBr D00894] | conform

Same assay, conditions: 40° C./R.H. 75%, time 0; sum of all impurity peak areas

Structure (SMILES) | Chromatographic purity B) (HPLC): 6) total unknown impurities
Br.CC(NC(C)(C)C)C(=O)c1cccc(Cl)c1 (stereo not drawn) [Bupropion.HBr D00896] | 6) 0.05%
Br.CC(NC(C)(C)C)C(=O)c1cccc(Cl)c1 (stereo not drawn) [Bupropion.HBr D00894] | 6) 0.04%

Test: not given
Details: Ionic Surfactants; as reported by the manufacturer; cited from earlier work

Structure (SMILES) | HLB
CCCCCCCC/C=C\CCCCCCCC(=O)[O-].[Na+] [Sodium oleate] | 18

Same assay, conditions: Lower Alcohol Fatty Acid Ester Surfactants; as reported by the manufacturer; cited from earlier work

Structure (SMILES) | HLB
CCCCC/C=C\C/C=C\CCCCCCCC(=O)OCC [Ethyl linoleate] | <10
CCCCCCCCCCCCCC(=O)OC(C)C [Isopropyl myristate] | <10

Same assay, conditions: Mono- and Diglyceride Surfactants; cited from earlier work

Structure (SMILES) | HLB
CCCCCC(=O)OCC(O)CO (stereo not drawn) [Monocaproin (C6)] | <10
